Laboratory results: PubChem BioAssay (NCI)
“And” between values parts separate entries of the source, which are not always exact repeats. Equal entries are not always repeated.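 Results reflect a 48-hour exposure of cells in 96-well plates to compound at five concentrations. At the GI50, growth is halved. TGI is the concentration that stops growth completely.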

Assays:
Test in all cases: DTP human tumour cell line panel, 48 h
786-0 renal = system: 786-0 renal
HCC-2998 colon = system: HCC-2998 colon
HL-60(TB) leukemia = system: HL-60(TB) leukemia
NCI-H226 lung = system: NCI-H226 lung
NCI-H23 lung = system: NCI-H23 lung
NCI-H460 lung = system: NCI-H460 lung
OVCAR-8 ovarian = system: OVCAR-8 ovarian
TK-10 renal = system: TK-10 renal
U251 CNS = system: U251 CNS
UO-31 renal = system: UO-31 renal

SMILES	GI50 (786-0 renal)	TGI (786-0 renal)	GI50 (HCC-2998 colon)	TGI (HCC-2998 colon)	GI50 (HL-60(TB) leukemia)	TGI (HL-60(TB) leukemia)	GI50 (NCI-H226 lung)	TGI (NCI-H226 lung)	GI50 (NCI-H23 lung)	TGI (NCI-H23 lung)	GI50 (NCI-H460 lung)	TGI (NCI-H460 lung)	GI50 (OVCAR-8 ovarian)	TGI (OVCAR-8 ovarian)	GI50 (TK-10 renal)	TGI (TK-10 renal)	GI50 (U251 CNS)	TGI (U251 CNS)	GI50 (UO-31 renal)	TGI (UO-31 renal)
CC(=O)[CH-]C(C)=O.[CH2-]C.[CH2-]C.[Tl+3]	> 100 µM	> 100 µM	> 100 µM	> 100 µM	> 100 µM	> 100 µM	> 100 µM	> 100 µM	> 100 µM	> 100 µM	> 100 µM	> 100 µM	> 100 µM	> 100 µM	> 100 µM	> 100 µM	> 100 µM	> 100 µM	> 100 µM	> 100 µM
CC(=O)NNc1nc(C)c(C(=O)NNC(=O)C(=O)Nc2nc3ccc([N+](=O)[O-])cc3s2)s1		> 100 µM		> 100 µM		79.9 µM		> 100 µM		> 100 µM		> 100 µM		> 100 µM		> 100 µM		> 100 µM		> 100 µM
C#CCC(N)(CO)C(=O)O (stereo not drawn)		> 100 µM		> 100 µM		> 100 µM		> 100 µM		> 100 µM		> 100 µM		> 100 µM		> 100 µM		> 100 µM		> 100 µM
CC(=O)[O-].CC(=O)[O-].CC(=O)[O-].CC(=O)[O-].[Mo+2].[Mo+2]	> 100 µM	> 100 µM	> 100 µM	> 100 µM	> 100 µM	> 100 µM	> 100 µM	> 100 µM	> 100 µM	> 100 µM	> 100 µM	> 100 µM	> 100 µM	> 100 µM	> 100 µM	> 100 µM	> 100 µM	> 100 µM	> 100 µM	> 100 µM
CC1=C(C(=O)Nc2ccccc2C)C(/C=C/c2ccccc2)C(C(=O)Nc2ccccc2C)=C(C)N1		> 100 µM		> 100 µM		> 100 µM		> 100 µM		> 100 µM		> 100 µM		> 100 µM		> 100 µM		> 100 µM		> 100 µM
NC(=O)C1(N2CCCCC2)CCN(CCCC(=O)c2ccc(F)cc2)CC1	4.59 µM	43.2 µM	1.78 µM	6.19 µM	0.801 µM	4.19 µM	2.34 µM	8.81 µM	1.08 µM	> 20.1 µM	2.7 µM	> 100 µM	4.91 µM	> 100 µM	> 26 µM	> 100 µM	0.263 µM	> 100 µM	17.2 µM	> 100 µM
CNC(SC)=C1C(=O)OC(C)(C)OC1=O		> 100 µM		> 100 µM		> 100 µM		> 100 µM		> 100 µM		> 100 µM		> 100 µM		> 100 µM		37.7 µM		> 100 µM
COc1ccc(Nc2nc3ccccc3nc2-c2cccs2)cc1		> 100 µM		> 100 µM		> 100 µM		> 100 µM		> 100 µM		> 100 µM		> 100 µM		> 100 µM		> 100 µM		> 100 µM
COCCOCCOCc1n(Cc2ccc3ccccc3n2)c2ccccc2[n+]1Cc1ccc2ccccc2c1	1.53 µM	3.04 µM	0.468 µM	2.04 µM	0.187 µM	0.476 µM	0.875 µM	4.83 µM	0.386 µM	10.3 µM	0.424 µM	1.56 µM	0.498 µM	1.92 µM	1.04 µM	2.42 µM	0.328 µM	1.26 µM	2.29 µM	11.2 µM
Cn1c([N+](=O)[O-])cnc1/C=C1\Oc2cc(Cl)ccc2C1=O	1.08 µM	4.75 µM	2.04 µM	4.81 µM	0.421 µM	5.04 µM	2.05 µM	8.41 µM	0.766 µM	4.47 µM	0.297 µM	3.4 µM	0.401 µM	> 100 µM	1.33 µM	4.81 µM	1.53 µM	5.07 µM	0.25 µM	1.3 µM
O=C1C(SCCO)=C(SCCO)C(=O)c2ccccc21		3.91 µM		3.42 µM		7.91 µM		3.38 µM		2.44 µM		3.49 µM		1.22 µM		3.39 µM		2.01 µM		2.57 µM
O=S1(=O)NCCCN1CCNc1nccc(-c2c(-c3cccc(O)c3)nc3sccn23)n1	14.4 µM	> 100 µM	31.3 µM	> 92 µM	23 µM	60 µM	18.9 µM	73.9 µM	29 µM	> 100 µM	21.5 µM	> 100 µM	2.86 µM	> 100 µM	33.6 µM	> 100 µM	21.6 µM	> 100 µM	37 µM	> 96.6 µM
C=C(CN1CCc2ccccc2C1)c1ccc(C(=O)Nc2ccccc2N)cc1	1.53 µM	11.6 µM	0.0899 µM	0.379 µM	3.18 µM	> 12.3 µM	1.49 µM	9.2 µM	0.677 µM		3.06 µM	> 32 µM	1.09 µM	13.8 µM	5.74 µM	14.8 µM	0.911 µM	4.8 µM	2.87 µM	8.8 µM
CCCCCCCCCCCCCCCCCCNC(=O)[C@H]1CSC(c2cccs2)N1 (stereo partly drawn)	1.13 µM	2.49 µM	1.06 µM	2.31 µM	0.919 µM	2.06 µM	1.05 µM	2.01 µM	1.8 µM	17.7 µM	0.754 µM	1.69 µM	1.31 µM	3.34 µM	1.79 µM	> 50 µM	0.929 µM	1.74 µM	10.3 µM	> 50 µM
O=C1C=C(O)c2[nH]c(=O)ccc2C1=O		> 100 µM		> 100 µM		> 100 µM		> 100 µM		> 100 µM		> 100 µM		> 100 µM		> 100 µM		> 100 µM		> 100 µM
O=C(/C=C/c1ccccc1)CC(c1ccccc1)N1CCOCC1 (stereo not drawn)	1.95 µM	3.61 µM	1.9 µM	3.54 µM	3.68 µM	18.1 µM	5.39 µM	24.2 µM	2 µM	4.4 µM	15.5 µM	33.2 µM	4.57 µM	17.3 µM	8.63 µM	24.5 µM	2.44 µM	5.21 µM	1.58 µM	3.24 µM
Cc1ccc(S(=O)(=O)N/N=C(\c2nc3ccc([N+](=O)[O-])cc3[nH]c2=O)C(O)c2ccccc2Cl)cc1 (stereo not drawn)		> 100 µM		> 100 µM		> 100 µM		> 100 µM		> 100 µM		> 100 µM		> 100 µM		> 100 µM		> 100 µM		> 100 µM
CCC(=C(c1ccc(OCCCN(C)C)cc1)c1ccc(OCCCN(C)C)cc1)c1ccc(Cl)cc1	0.35 µM	0.759 µM	0.51 µM	1.54 µM	0.372 µM	0.941 µM	2.65 µM	5.57 µM	2.5 µM	4.98 µM	0.457 µM	1.23 µM	0.933 µM	3.37 µM	3.26 µM	6.01 µM	0.419 µM	1.1 µM	0.269 µM	0.58 µM
Cc1cc(N(CCC#N)CCC#N)ccc1/C=C1N=C(/C=C/c2ccccc2)OC(=O)N\1		> 100 µM		> 100 µM		> 100 µM		> 100 µM		> 100 µM		> 100 µM		> 100 µM		> 100 µM		> 100 µM		> 100 µM
C[n+]1c2ccccc2cc2c(CNC(CCCN=C(N)N)C(=O)O)cccc21 (stereo not drawn)	0.443 µM	2.19 µM and 1.59 µM	5.14 µM	5.67 µM and 16.7 µM	0.187 µM	0.488 µM and 0.882 µM	7.76 µM	7.63 µM and 35.8 µM	4.19 µM	18.4 µM	3.42 µM	5 µM and 13.9 µM	2.42 µM	5.11 µM and 7.74 µM	0.967 µM	2.07 µM and 2.35 µM	2.12 µM	4.28 µM and 6.85 µM	10.2 µM	2.43 µM and 22 µM
C[C@H](Cn1ncnn1)Nc1ncc2cc(Oc3ccc(F)cc3F)c(=O)n(C)c2n1	> 25 µM	> 25 µM	> 25 µM	> 25 µM	> 25 µM	> 25 µM	> 25 µM	> 25 µM	> 25 µM	> 25 µM	> 25 µM	> 25 µM	> 25 µM	> 25 µM	> 25 µM	> 25 µM	> 25 µM	> 25 µM	> 25 µM	> 25 µM
NC(=O)c1cccc(Nc2nccc(Nc3cccc(F)c3)n2)c1	9.15 µM	> 25 µM	18.5 µM	> 25 µM	7.52 µM	20.5 µM	4.74 µM	> 21.7 µM	10.6 µM	> 25 µM	7 µM	> 25 µM	9.49 µM	> 25 µM	6.51 µM	> 23.7 µM	14.3 µM	> 25 µM	4.49 µM	22.3 µM
COc1ccccc1/C=C/C(=O)/C=C/c1ccccc1O	1.6 µM	3.41 µM	1.29 µM	2.64 µM	0.323 µM		1.71 µM	4.12 µM	1.5 µM	4.1 µM	1.67 µM	4.39 µM	1.26 µM	10.4 µM	2.72 µM	5.74 µM	0.326 µM	1.28 µM	0.359 µM	1.61 µM
Cc1cc(Nc2nc(SCc3ccc(C(=O)Nc4ccc(F)cc4N)cc3)nn3cccc23)n[nH]1	0.466 µM	22 µM	0.677 µM	11.5 µM	0.268 µM	0.785 µM	2.7 µM	20.5 µM	0.603 µM	47.4 µM	0.395 µM	> 100 µM	0.483 µM	88 µM	1.21 µM	7.33 µM	0.343 µM	> 100 µM	1.33 µM	11 µM
COc1ccc(/C=C2/CCc3cc4ccc(OC)cc4[o+]c32)c(O)c1	3.97 µM	19.8 µM	15.3 µM	32.6 µM	4.96 µM	61.4 µM	12.3 µM	25.7 µM	10.4 µM	30.1 µM	2.8 µM	9.74 µM	2.27 µM	6.13 µM	11.7 µM	24.6 µM	2.3 µM	5.57 µM	2.39 µM	8.04 µM
CCCCCCCCCCN=C(c1ccc(N(C)C)cc1)c1ccc(N(C)C)cc1	3.61 µM	36.8 µM	5.07 µM	> 88.6 µM	0.954 µM	18.9 µM	10.8 µM	> 81.3 µM	1.58 µM	> 75.4 µM	0.437 µM	24.5 µM	2.09 µM	> 59.5 µM	3.81 µM	49.7 µM	0.579 µM	33.2 µM	2.39 µM	33 µM
O=C(O)CCC(NC(=S)S)C(=O)O.[Na+].[Zn+2] (stereo not drawn)	> 50 µM	> 50 µM	> 50 µM	> 50 µM	> 50 µM	> 50 µM	> 50 µM	> 50 µM	> 50 µM	> 50 µM	> 50 µM	> 50 µM	> 50 µM	> 50 µM	> 50 µM	> 50 µM	> 50 µM	> 50 µM	> 50 µM	> 50 µM
Cc1ccccc1Nc1nc2c(s1)C(=O)c1ccccc1C2=O		8.47 µM		32.2 µM		> 100 µM		32.8 µM		14.1 µM		25.3 µM		9.05 µM		38.4 µM		8.83 µM		14.4 µM
CC1(Cc2ccccc2)NC(=S)NC1=O (stereo not drawn)		> 100 µM		> 100 µM		> 100 µM		> 100 µM		> 100 µM		> 100 µM		> 100 µM		> 100 µM		> 100 µM		> 100 µM
Cc1cc2c(Br)cc(Br)c(O)c2nc1C(=O)c1ccccc1		28.6 µM		> 68.2 µM		8.11 µM		> 79.2 µM		51.1 µM		30.7 µM		> 100 µM		> 100 µM		> 71.3 µM		> 82.1 µM
